Laboratory results from article PMC8455565 (Scientific Reports, 2021).

What was measured:
TXK = target: T1, TXK (Homo sapiens, UniProt P42681); test: Kinase biochemical assay (FRET), TXK; conditions: read-out: inhibitory activity on TXK
T1 sequence (P42681 1-527): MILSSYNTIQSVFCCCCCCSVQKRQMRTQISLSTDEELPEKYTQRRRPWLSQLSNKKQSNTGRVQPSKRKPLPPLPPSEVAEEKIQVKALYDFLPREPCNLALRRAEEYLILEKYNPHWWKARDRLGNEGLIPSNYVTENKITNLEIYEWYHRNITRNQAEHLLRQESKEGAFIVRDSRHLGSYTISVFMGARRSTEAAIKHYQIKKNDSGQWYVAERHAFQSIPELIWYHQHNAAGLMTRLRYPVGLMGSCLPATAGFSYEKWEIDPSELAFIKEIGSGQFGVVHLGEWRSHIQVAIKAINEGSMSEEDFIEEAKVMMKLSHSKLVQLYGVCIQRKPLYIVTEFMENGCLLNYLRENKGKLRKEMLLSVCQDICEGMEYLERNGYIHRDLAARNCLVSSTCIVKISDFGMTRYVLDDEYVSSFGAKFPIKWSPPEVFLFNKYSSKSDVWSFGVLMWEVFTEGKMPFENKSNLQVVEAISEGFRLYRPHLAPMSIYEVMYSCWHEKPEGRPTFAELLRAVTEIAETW

BTK [1] = target: T2, BTK (Homo sapiens, UniProt Q06187); test: hBTK Lanthascreen biochemical activity
BTK [2] = target: T2, BTK; test: BTK occupancy in B cell line (Ramos cells, biotinylated probe, AlphaScreen); format: cell-based
Experimental: A total of 5 × 10^5 Ramos cells/well were plated in 96-well PDL-coated plates in DMEM with high glucose (GIBCO) supplemented with 10% FBS. Serial dilutions of LY3439943 in DMSO (final DMSO concentration, 0.4%) were incubated with the cells for 1 h at 37 °C. An equal volume of a covalent biotinylated BTK probe was added (final concentration, 167 nM), and the cells were incubated for another 1 h at 37 °C. The cells were lysed, and the amount of BTK was determined using the AlphaScreen IgG Detection Kit (Perkin Elmer 6760617R) and an anti-BTK antibody (Thermo Scientific Cat# MA5-14929) following the manufacturer’s instructions. The signal was measured at 615 nm with an Envision plate reader (Perkin Elmer).

B cells = test: B cell inhibition in whole blood; format: cell-based
[3] = Plasma pharmacokinetics in CIA model rats; format: in vivo; conditions: Lewis, rat; for AUC(0-t) / Tmax / Cmax: day 9, mean ± SD; for Cmax: po
Experimental: After drug administration, whole blood was collected from CIA model rats and human subjects at the indicated times. Plasma was obtained by centrifugation at 12,000 rpm for 2 min and stored at − 20 °C until analysis.

CD8+ Memory (CD3+CD28) = test: High-dimensional phosphorylation analysis, CD8+ Memory (CD3+CD28); format: cell-based, human; conditions: 30 µM, 5'
Experimental: (§1) The analysis measured 94 intracellular signaling nodes (81 phosphorylation sites, 10 total protein levels and 3 methylation/acetylation sites) in stimulated immune cells, including B cells (IgM plus CD40L), CD4 + and CD8 + T cells (IL-2; CD3 plus CD28), monocytes (M-CSF), NK cells (IL-2), and granulocytes (LPS).

STAT5 (Y694) = test: IL-2-stimulated STAT5 phosphorylation (JAK3 signaling) in T and NK cells; format: cell-based, human; conditions: 30 μM
Experimental: as §1

BTK [4] = target: T2, BTK; test: BTK occupancy in whole blood ex vivo; format: cell-based; set-up: from tissue; host or cells: whole blood
BTK [5] = target: T2, BTK; test: Phase I BTK occupancy (free BTK ELISA) in PBMCs of healthy volunteers; format: in vivo; set-up: endogenous in cells; host or cells: PBMCs of healthy volunteers
Experimental: PK/PD data from 24 subjects who had received the drug BID among the 90 total subjects who participated in the MAD study were analyzed. Blood was collected on day 1 before drug administration and 1 h, 2 h, 4 h, and 12 h after drug administration. Blood samples were taken 3 days and 2 h after drug administration. Additional blood samples were taken on day 6 (5, 20, and 60 mg/kg), day 15 (40 mg/kg), day 17, and day 21 for PK/PD analysis.
The BTK occupancy assay and analysis of BTK phosphorylation inhibition were performed as described previously. Briefly, isolated PBMCs were lysed with RIPA buffer (R0278, Sigma-Aldrich) containing 1 × protease/phosphatase inhibitor (1861281, Thermo Fisher Scientific) and EDTA (1861274, Thermo Fisher Scientific). The supernatants were collected by 10 min at 14,000 × g in microcentrifuge at 4 °C and biotinylated probe was added to bind free BTK for 1 h. Rabbit anti-BTK Ab (1:5000 in 1% BSA) bound the captured BTK/probe complex, and was detected with […] antibody conjugated with HRP then ultra-TMB solution was added to each well for the free BTK analysis. Analysis of free and total BTK levels for the phase I study was conducted by Cambridge Biomedical Inc. (MA, USA). BTK occupancy was calculated by taking the free BTK and total BTK results from a given donor and used the following formula: %BTKoccupancy=100%-FreeBTK/totalBTK×100.

T2 sequence (Q06187 whole entry): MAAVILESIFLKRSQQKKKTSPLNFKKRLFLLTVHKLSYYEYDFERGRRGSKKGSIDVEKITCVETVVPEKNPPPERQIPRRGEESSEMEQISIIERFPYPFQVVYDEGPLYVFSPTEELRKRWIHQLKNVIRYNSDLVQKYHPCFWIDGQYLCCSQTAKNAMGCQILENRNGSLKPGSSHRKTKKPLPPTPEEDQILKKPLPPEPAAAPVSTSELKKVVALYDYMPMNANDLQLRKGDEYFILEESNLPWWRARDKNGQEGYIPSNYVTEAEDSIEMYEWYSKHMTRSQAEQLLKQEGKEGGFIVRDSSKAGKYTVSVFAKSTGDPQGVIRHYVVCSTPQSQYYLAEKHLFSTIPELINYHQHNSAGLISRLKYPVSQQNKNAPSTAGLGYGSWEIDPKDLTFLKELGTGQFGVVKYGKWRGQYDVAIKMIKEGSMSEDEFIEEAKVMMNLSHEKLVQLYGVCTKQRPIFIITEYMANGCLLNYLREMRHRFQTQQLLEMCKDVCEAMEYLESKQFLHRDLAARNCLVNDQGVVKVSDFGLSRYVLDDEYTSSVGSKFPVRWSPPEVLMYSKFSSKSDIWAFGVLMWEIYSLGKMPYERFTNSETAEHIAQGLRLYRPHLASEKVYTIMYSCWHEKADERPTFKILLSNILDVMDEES

Compound `C=CC(=O)Nc1cccc(Oc2nc(Nc3ccc(N4CCN(C)CC4)cc3)nc3ccoc23)c1` [Poseltinib] has an IC50 (TXK) of under 10 nM, an IC50 (BTK [1]) of 6 nM and an IC50 (BTK [2]) of 5 nM. The IC50 (B cells) was 420 nM, the AUC(0-t) ([3]; 0.3 mg/kg oral) was 2 ± 1.8 ng·h/mL and the Tmax ([3]; 0.3 mg/kg oral) was 36 ± 18 min. The AUC(0-t) ([3]; 1 mg/kg oral) was 10 ± 3.6 ng·h/mL, the Tmax ([3]; 1 mg/kg oral) was 30 min and the AUC(0-t) ([3]; 3 mg/kg oral) was 49.9 ± 10.4 ng·h/mL. The Tmax ([3]; 3 mg/kg oral) was 84 ± 108 min, the concentration at 4 h ([3]; oral, all treatment groups (0.3, 1, 3 mg/kg), day 9, below LLOQ, read-out: plasma concentration at 4 h after drug administration) was under 0.5 ng/mL and the Cmax ([3]; 0.3 mg/kg, 0.3 mg/kg oral) was 1.5 ± 0.5 ng/mL. For the same compound, the Cmax ([3]; 1 mg/kg, 1 mg/kg oral) was 7.3 ± 3.3 ng/mL, the Cmax ([3]; 3 mg/kg, 3 mg/kg oral) was 22.6 ± 2.3 ng/mL and the “BTK phosphorylation, Log2Ratio Stim/Control” value (CD8+ Memory (CD3+CD28)) was 1.34. The “CrL phosphorylation, Log2Ratio Stim/Control” value (CD8+ Memory (CD3+CD28)) was 1.59, the “HS1 phosphorylation, Log2Ratio Stim/Control” value (CD8+ Memory (CD3+CD28)) was 0.56 and the “LCK phosphorylation, Log2Ratio Stim/Control” value (CD8+ Memory (CD3+CD28)) was 1.52. The “PLCγ2 phosphorylation, Log2Ratio Stim/Control” value (CD8+ Memory (CD3+CD28)) was 2.55, the “RPS6KA1 phosphorylation, Log2Ratio Stim/Control” value (CD8+ Memory (CD3+CD28)) was 0.47 and the “SRC phosphorylation, Log2Ratio Stim/Control” value (CD8+ Memory (CD3+CD28)) was 0.80. For the same compound, the “WIPF1 phosphorylation, Log2Ratio Stim/Control” value (CD8+ Memory (CD3+CD28)) was 0.82, the “ZAP70 phosphorylation, Log2Ratio Stim/Control” value (CD8+ Memory (CD3+CD28)) was 1.33 and the “IL-2-stimulated phosphorylation of STAT5 (Y694)” value (shortened to “IL-2-stimulated phosphorylation”) (STAT5 (Y694); CD4 + T cells) was “inhibited”. For the same compound, the “IL-2-stimulated phosphorylation” value (STAT5 (Y694); CD8 + T cells) was “inhibited”, the “IL-2-stimulated phosphorylation” value (STAT5 (Y694); NK cells) was “inhibited” and the IC50 (BTK [4]) was 160 nM. For the same compound, the “time of maximum BTK inhibition” value (BTK [5]; 40 mg) was 12 h, the BTK occupancy (BTK [5]; 40 mg dosing, maintained up to 48 h after the first dose) was “More than 80%” and the “time of maximum BTK inhibition” value (BTK [5]; 60 mg) was 4 h. For the same compound, the BTK inhibition (BTK [5]; 4 h after the first dose, doses of 40 mg and higher) was over 90% and the inhibition at 20 mg (BTK [5]; human, steady state (120 h), doses of 20 mg bid and higher) was over 90%.
